According to PubChem BioAssay AID248 (DTP/NCI, 2004):
“And” between values parts separate entries of the source, which are not always exact repeats. Identical values can stand only once. Toxic doses and inconclusive results are not listed.

System: L1210 leukemia ip in BDF1 mice, survival T/C
Experiment: NCI In Vivo Anticancer Drug Screen. Data for tumor model L1210 Leukemia (intraperitoneal) in B6D2F1 (BDF1) mice
Settings: endpoint: mean survival time, higher = longer survival
In short: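 Antitumor effect is assessed in tumor-bearing animals. Survival in the compound arm is compared with a vehicle-dosed control arm and expressed as their quotient.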

[1] = dose: 100.0 mg/kg/injection, schedule: Q04DX003 (ip), vehicle: Klucel (hydroxypropylcellulose) (HPC)
[2] = dose: 200.0 mg/kg/injection, schedule: Q04DX003 (ip), vehicle: Klucel (hydroxypropylcellulose) (HPC)
[3] = dose: 400.0 mg/kg/injection, schedule: Q04DX003 (ip), vehicle: Klucel (hydroxypropylcellulose) (HPC)
[4] = dose: 100.0 mg/kg/injection, schedule: Q01DX001 (ip), vehicle: saline with Tween-80
[5] = dose: 200.0 mg/kg/injection, schedule: Q01DX001 (ip), vehicle: saline with Tween-80
[6] = dose: 400.0 mg/kg/injection, schedule: Q01DX001 (ip), vehicle: saline with Tween-80
[7] = dose: 100.0 mg/kg/injection, schedule: Q04DX003 (ip), vehicle: saline with Tween-80
[8] = dose: 200.0 mg/kg/injection, schedule: Q04DX003 (ip), vehicle: saline with Tween-80

Compound: COCCCN=C(N)c1ccc(NC(=O)c2ccc(C(=O)Nc3ccc(C(N)=NCCCOC)cc3)c(Cl)c2)cc1
- T/C (dose: 0.47 mg/kg/injection, schedule: Q01DX Z (ip), vehicle: saline): 92 % of control
- T/C (dose: 0.94 mg/kg/injection, schedule: Q01DX Z (ip), vehicle: saline): 91 % of control
- T/C (dose: 1.88 mg/kg/injection, schedule: Q01DX Z (ip), vehicle: saline): 94 % of control
- T/C (dose: 3.75 mg/kg/injection, schedule: Q01DX Z (ip), vehicle: saline): 111 % of control
- T/C (dose: 7.5 mg/kg/injection, schedule: Q01DX Z (ip), vehicle: saline): 171 % of control
- T/C (dose: 7.5 mg/kg/injection, schedule: Q01DX Z (oral), vehicle: saline): 103 % of control
- T/C (dose: 15.0 mg/kg/injection, schedule: Q01DX Z (ip), vehicle: saline): 89 % of control
- T/C (dose: 15.0 mg/kg/injection, schedule: Q01DX Z (oral), vehicle: saline): 111 % of control
- T/C (dose: 30.0 mg/kg/injection, schedule: Q01DX Z (oral), vehicle: saline): 94 % of control
- T/C (dose: 60.0 mg/kg/injection, schedule: Q01DX Z (oral), vehicle: saline): 102 % of control

Compound: O=C1c2ccccc2C(=C/C=C/c2ccccc2)c2ccccc21
- T/C [1]: 99 % of control
- T/C [2]: 89 % of control
- T/C [3]: 92 % of control

Compound: CN(C(=O)Oc1ccccc1)c1ccc(S(=O)(=O)F)cc1
- T/C [4]: 104 % of control
- T/C [5]: 96 % of control
- T/C [6]: 98 % of control

Compound: CC(O)CN1CCCCC1 (stereo unspecified)
- T/C (dose: 100.0 mg/kg/injection, schedule: Q01DX001 (ip), vehicle: other): 98 % of control
- T/C [7]: 96 % of control
- T/C (dose: 200.0 mg/kg/injection, schedule: Q01DX001 (ip), vehicle: other): 98 % of control
- T/C [8]: 96 % of control

Compound: Cn1cc([N+](=O)[O-])cnc1=O
- T/C [1]: 100 % of control
- T/C [2]: 102 % of control
- T/C [3]: 102 % of control

Compound: CCCCNCCC(SSSC(CCNCCCC)c1ccc(Cl)cc1)c1ccc(Cl)cc1 (stereo unspecified)
- T/C (dose: 6.25 mg/kg/injection, schedule: Q04DX003 (ip), vehicle: saline with Tween-80): 103 % of control
- T/C (dose: 12.5 mg/kg/injection, schedule: Q04DX003 (ip), vehicle: saline with Tween-80): 88 % of control
- T/C (dose: 25.0 mg/kg/injection, schedule: Q04DX003 (ip), vehicle: saline with Tween-80): 91 % of control

Compound: CCCCCN(CCCCC)C(=S)[S-].CCCCCN(CCCCC)C(=S)[S-].[Zn]
- T/C (dose: 100.0 mg/kg/injection, schedule: Q04DX003 (ip), vehicle: carboxymethylcellulose (CMC)): 94 % of control
- T/C (dose: 200.0 mg/kg/injection, schedule: Q04DX003 (ip), vehicle: carboxymethylcellulose (CMC)): 100 % of control
- T/C (dose: 400.0 mg/kg/injection, schedule: Q04DX003 (ip), vehicle: carboxymethylcellulose (CMC)): 91 % of control

Compound: Cc1ccc(Nc2ccc([N+](=O)[O-])cc2[N+](=O)[O-])cc1C
- T/C (dose: 50.0 mg/kg/injection, schedule: Q04DX003 (ip), vehicle: Klucel (hydroxypropylcellulose) (HPC)): 102 % of control
- T/C (dose: 100.0 mg/kg/injection, schedule: Q01DX009 (ip), vehicle: Klucel (hydroxypropylcellulose) (HPC)): 108 % of control
- T/C [1]: 102 % of control
- T/C (dose: 200.0 mg/kg/injection, schedule: Q01DX009 (ip), vehicle: Klucel (hydroxypropylcellulose) (HPC)): 90 % of control
- T/C [2]: 98 % of control and 104 % of control
- T/C (dose: 400.0 mg/kg/injection, schedule: Q01DX009 (ip), vehicle: Klucel (hydroxypropylcellulose) (HPC)): 97 % of control
- T/C [3]: 89 % of control

Compound: S=c1nc[nH]c2c1ncn2-n1cccc1
- T/C [4]: 97 % of control
- T/C [7]: 103 % of control
- T/C [5]: 87 % of control
- T/C [8]: 98 % of control
- T/C [6]: 92 % of control
- T/C (dose: 400.0 mg/kg/injection, schedule: Q04DX003 (ip), vehicle: saline with Tween-80): 98 % of control

Compound: OC(CC1(O)C(F)(F)C(F)(F)C1(F)F)c1ccccc1 (stereo unspecified)
- T/C (dose: 100.0 mg/kg/injection, schedule: Q01DX009 (ip), vehicle: saline with Tween-80): 97 % of control
- T/C (dose: 400.0 mg/kg/injection, schedule: Q01DX009 (ip), vehicle: saline with Tween-80): 100 % of control

Compound: O=C(Nc1nccs1)c1ccc(C(=O)Nc2nccs2)cc1
- T/C (dose: 15.0 mg/kg/injection, schedule: Q01DX Z (ip), vehicle: carboxymethylcellulose (CMC)): 93 % of control
- T/C (dose: 30.0 mg/kg/injection, schedule: Q01DX Z (ip), vehicle: carboxymethylcellulose (CMC)): 100 % of control
- T/C (dose: 60.0 mg/kg/injection, schedule: Q01DX Z (ip), vehicle: carboxymethylcellulose (CMC)): 100 % of control
- T/C (dose: 120.0 mg/kg/injection, schedule: Q01DX Z (ip), vehicle: carboxymethylcellulose (CMC)): 100 % of control and 90 % of control
- T/C (dose: 180.0 mg/kg/injection, schedule: Q01DX Z (ip), vehicle: carboxymethylcellulose (CMC)): 96 % of control
- T/C (dose: 270.0 mg/kg/injection, schedule: Q01DX Z (ip), vehicle: carboxymethylcellulose (CMC)): 96 % of control
- T/C (dose: 400.0 mg/kg/injection, schedule: Q01DX Z (ip), vehicle: carboxymethylcellulose (CMC)): 95 % of control
